The results in this text go back to the supplement of paper PMC10307832.

What all share (experiment): relative viability (nuclei count vs DMSO), 5 days (fraction); higher = more cells survive
Compound in assay [1]: CC1=C(N=C(N=C1N)[C@H](CC(=O)N)NC[C@@H](C(=O)N)N)C(=O)N[C@@H]([C@H](C2=CN=CN2)OC3C(C(C(C(O3)CO)O)O)OC4C(C(C(C(O4)CO)O)OC(=O)N)O)C(=O)N[C@H](C)[C@H]([C@H](C)C(=O)N[C@@H]([C@@H](C)O)C(=O)NCCC5=NC(=CS5)C6=NC(=CS6)C(=O)NCCC[S+](C)C)O [Bleomycin] + CC(C)C[C@H](NC(=O)[C@H](Cc1ccccc1)NC(=O)c1cnccn1)B(O)O [Bortezomib] (partner 0.002 µM)
The conditions noted are these: main component drawn. The method in brief: (§1)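 One day after seeding in 1536-well plates, lung cancer cell lines were dosed by pin tool. Dosing was either single-drug or a fixed anchor-drug dose plus five library-drug doses (not always all listed) in √10 steps. After 5 days, nuclei were stained in one fix-and-stain step and counted on 4× images, and relative viability is the nuclei count of treated wells over that of vehicle wells, given as the median of duplicate plates.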

Compound in assay [2]: CC1=C(N=C(N=C1N)[C@H](CC(=O)N)NC[C@@H](C(=O)N)N)C(=O)N[C@@H]([C@H](C2=CN=CN2)OC3C(C(C(C(O3)CO)O)O)OC4C(C(C(C(O4)CO)O)OC(=O)N)O)C(=O)N[C@H](C)[C@H]([C@H](C)C(=O)N[C@@H]([C@@H](C)O)C(=O)NCCC5=NC(=CS5)C6=NC(=CS6)C(=O)NCCC[S+](C)C)O [Bleomycin] + COc1cccc2cc(-c3nc([C@H]4CC[C@H](C(=O)O)CC4)n4ncnc(N)c34)[nH]c12 [OSI-027] (partner 0.5 µM)
The note with it: main component drawn. Summed up: as §1

Compound in assay [3]: CC1=C(N=C(N=C1N)[C@H](CC(=O)N)NC[C@@H](C(=O)N)N)C(=O)N[C@@H]([C@H](C2=CN=CN2)OC3C(C(C(C(O3)CO)O)O)OC4C(C(C(C(O4)CO)O)OC(=O)N)O)C(=O)N[C@H](C)[C@H]([C@H](C)C(=O)N[C@@H]([C@@H](C)O)C(=O)NCCC5=NC(=CS5)C6=NC(=CS6)C(=O)NCCC[S+](C)C)O [Bleomycin] + N=C(N)NC(=N)NCCc1ccccc1 [Phenformin] (partner 250 µM)
The note with it: main component drawn. Summed up: as §1

Compound in assay [4]: COc1cc([C@@H]2c3cc4c(cc3[C@@H](O[C@@H]3O[C@@H]5CO[C@@H](C)O[C@H]5[C@H](O)[C@H]3O)[C@H]3COC(=O)[C@H]23)OCO4)cc(OC)c1O [Etoposide] + COc1cc2c(Oc3ccc(NC(=O)C4(C(=O)Nc5ccc(F)cc5)CC4)cc3F)ccnc2cc1OCCCN1CCOCC1 [Foretinib] (partner 0.25 µM)
Summed up:
as §1

In the case of UMC-11, the relative viability in assay [1] (first compound 0.01 µM) stood at 0.626; in assay [1] (first compound 0.03162 µM) it was 0.587; in assay [1] (first compound 0.1 µM) it was 0.576; in assay [1] (first compound 0.3162 µM), 0.477; in assay [1] (first compound 1 µM), 0.304; in assay [2] (first compound 0.01 µM), 0.403. Also, the relative viability in assay [2] (first compound 0.03162 µM) was 0.497; in assay [2] (first compound 0.1 µM) it was 0.482; in assay [2] (first compound 0.3162 µM) it was 0.393; in assay [2] (first compound 1 µM), 0.353; in assay [3] (first compound 0.01 µM) it was 0.311; in assay [3] (first compound 0.03162 µM), 0.335. The relative viability in assay [3] (first compound 0.1 µM) worked out at 0.29; in assay [3] (first compound 0.3162 µM) it was 0.283; in assay [3] (first compound 1 µM), 0.233; in assay [4] (first compound 0.01 µM) it was 1.1; in assay [4] (first compound 0.03162 µM), 1.17; in assay [4] (first compound 0.1 µM), 0.928. The results for the relative viability in assay [4] (first compound 0.3162 µM) and in assay [4] (first compound 1 µM) were 0.566 and 0.322, respectively.
